Data set [1] has as its system RAW264.7. Nature of the data set: Induction of apoptosis in mouse RAW264.7 cells assessed as live cells at 4 uM by flow cytometry analysis (reference value: 67.2 %). The class given is functional.
Data set [2] relates to RAW264.7. Briefly: Induction of apoptosis in mouse RAW264.7 cells assessed as live cells at 8 uM by flow cytometry analysis (reference value: 67.2 %). It is filed as functional. (In flow cytometry, cells or beads pass a laser one at a time.)
Data set [3] has as its system RAW264.7. Nature of the data set: Induction of apoptosis in mouse RAW264.7 cells assessed as live cells at 10 uM by flow cytometry analysis (reference value: 67.2 %). It is filed as functional.
The test system of data set [4] is RAW264.7. Briefly: Induction of apoptosis in mouse RAW264.7 cells assessed as live cells at 12 uM by flow cytometry analysis (reference value: 67.2 %). It is filed as functional.
In data set [5] the test system is RAW264.7. Nature of the data set: Induction of apoptosis in mouse RAW264.7 cells assessed as live cells at 16 uM by flow cytometry analysis (reference value: 67.2 %). The class given is functional.
Data set [6] relates to RAW264.7. Briefly: Induction of apoptosis in mouse RAW264.7 cells assessed as apoptotic cells at 4 uM by flow cytometry analysis (reference value: 3.06 %). It is filed as functional.
The subject of data set [7] is RAW264.7. Nature of the data set: Induction of apoptosis in mouse RAW264.7 cells assessed as apoptotic cells at 8 uM by flow cytometry analysis (reference value: 3.06 %). It is filed as functional.
Data set [8] deals with RAW264.7. Nature of the data set: Induction of apoptosis in mouse RAW264.7 cells assessed as apoptotic cells at 10 uM by flow cytometry analysis (reference value: 3.06 %). The class given is functional.
Data set [9] relates to RAW264.7. Briefly: Induction of apoptosis in mouse RAW264.7 cells assessed as apoptotic cells at 12 uM by flow cytometry analysis (reference value: 3.06 %). It is filed as functional.
Data set [10] deals with RAW264.7. Briefly: Induction of apoptosis in mouse RAW264.7 cells assessed as apoptotic cells at 16 uM by flow cytometry analysis (reference value: 3.06 %). It is filed as functional.
The subject of data set [11] is RAW264.7. Nature of the data set: Induction of apoptosis in mouse RAW264.7 cells assessed as necrotic cells at 4 uM by flow cytometry analysis (reference value: 28.7 %). It is filed as functional.
In data set [12] the test system is RAW264.7. Briefly: Induction of apoptosis in mouse RAW264.7 cells assessed as necrotic cells at 8 uM by flow cytometry analysis (reference value: 28.7 %). The class given is functional.
Data set [13] deals with RAW264.7. Nature of the data set: Induction of apoptosis in mouse RAW264.7 cells assessed as necrotic cells at 10 uM by flow cytometry analysis (reference value: 28.7 %). The class given is functional.
Data set [14] has as its system RAW264.7. Briefly: Induction of apoptosis in mouse RAW264.7 cells assessed as necrotic cells at 12 uM by flow cytometry analysis (reference value: 28.7 %). It is filed as functional.
Data set [15] concerns RAW264.7. Briefly: Induction of apoptosis in mouse RAW264.7 cells assessed as necrotic cells at 16 uM by flow cytometry analysis (reference value: 28.7 %). It is filed as functional.
The nature of data set [16]: Toxicity in BALB/c mouse assessed as effect on body weight loss at 1000 ug measured after 16 hrs in presence of hemagglutinin. Conditions: in vivo, dose 1000 µg.
The nature of data set [17]: Toxicity in BALB/c mouse assessed as reduction in leukocyte count measured after 16 hrs. Conditions: dose 100-1000 µg.
A short description of data set [18]: Toxicity in BALB/c mouse assessed as increase in Timp1 expression at 100 to 1000 ug measured after 16 hrs in presence of hemagglutinin. The settings on record: in vivo, dose 100-1000 µg.
A short description of data set [19]: Toxicity in BALB/c mouse assessed as increase in Mx2 expression at 100 to 1000 ug measured after 16 hrs in presence of hemagglutinin. Conditions: in vivo, dose 100-1000 µg.
In data set [20] the test system is BMDC. Briefly: Induction of immune response in TLR7 knockout mouse BMDC cells assessed as increase in IL-6 production at 10 to 100 uM incubated for 24 hrs by ELISA method. The class given is functional, cell-based. The settings on record: dose 10-100 µM. On the technique in general: In an ELISA, binding on a coated surface is turned into a signal by an enzyme label.

For data set [21], the system named is BMDC. Briefly: Induction of immune response in TLR7 knockout mouse BMDC cells assessed as increase in TNF-alpha production at 10 to 100 uM incubated for 24 hrs by ELISA method. Conditions: dose 10-100 µM. The class given is functional, cell-based.
The subject of data set [22] is BMDC. Briefly: Induction of immune response in TLR7 knockout mouse BMDC cells assessed as increase in MIP-1alpha production at 10 to 100 uM incubated for 24 hrs by ELISA method. The class given is functional, cell-based. The settings on record: dose 10-100 µM.
Data set [23] concerns BMDC. Nature of the data set: Induction of immune response in TLR7 knockout mouse BMDC cells assessed as increase in IFN-beta production at 10 to 100 uM incubated for 24 hrs by ELISA method. The class given is functional, cell-based. Conditions: dose 10-100 µM.
The test system of data set [24] is BMDC. Briefly: Induction of immune response in TLR7 knockout mouse BMDC cells assessed as increase in CXCL10 production at 10 to 100 uM incubated for 24 hrs by ELISA method. It is filed as functional, cell-based. The settings on record: dose 10-100 µM.
Data set [25] has as its system Mus musculus. Briefly: Immuno-adjuvant activity in SV-immunized C57BL/6 mouse assessed as increase in HA-specific IgG1 titer level at 100 ug, sc administered immediately and on day 0, 14 and measured at day 21 by ELISA. The settings on record: dose 100.0 µg, time 21.0 day. The class given is functional, organism-based.
Data set [26] deals with BMDC. Briefly: Induction of IL-6 production in mouse BMDC cells at 100 uM. It is filed as functional, cell-based.

The text below walks through data of ChEMBL document CHEMBL5365463, “Identification of a Self-Assembling Small-Molecule Cancer Vaccine Adjuvant with an Improved Toxicity Profile” (J Med Chem, 2023).

Active and inactive are the calls of the source. The calls are words filed in the database; no cut-off is given here.

Take `C[C@H](CCC(=O)NCCCCCNC(=O)CC[C@@H](C)[C@H]1CC[C@H]2[C@@H]3CC[C@@H]4C[C@H](O)CC[C@]4(C)[C@H]3C[C@H](O)[C@]12C)[C@H]1CC[C@H]2[C@@H]3CC[C@@H]4C[C@H](O)CC[C@]4(C)[C@H]3C[C@H](O)[C@]12C`: the Activity in data set [1] is on record as 67.4%; in data set [2] it was 66.9%; in data set [3], 33.5%; in data set [4] it was 27.9%; in data set [5], 11.6%; in data set [6], 2.23%. In addition, the Activity in data set [7] is 2.26%; in [8], 0.6%; in data set [9] it was 0.13%; in data set [10], 0.034%; in [11], 28.6%; in data set [12], 29.4%. Besides, the Activity in data set [13] is on record as 63.8%; in data set [14], 69.7%; in data set [15], 85%; in [16], “Toxic”; in data set [17], “Dose-Dependent Effect”; in data set [18] it was “Toxic”. Further, the Activity result in data set [19] was “Toxic”. In addition, the outcome in data set [20], in data set [21], in data set [22], in data set [23] and in data set [24] was inactive. Besides, the result in [25] was Active.

As for `C[C@H](CCC(=O)NCCCCCNC(=O)CC[C@@H](C)[C@H]1CC[C@H]2[C@@H]3[C@H](O)C[C@@H]4C[C@H](O)CC[C@]4(C)[C@H]3CC[C@]12C)[C@H]1CC[C@H]2[C@@H]3[C@H](O)C[C@H]4C[C@H](O)CC[C@]4(C)[C@H]3CC[C@]12C`, in data set [26], the outcome was Active.
